Laboratory results as given in US20170122958A1, “Enzymes Functional Probes” (University of Dundee, priority 2013, published 2017).

Columns and labels:
Assay in all cases: DSF thermal shift
Assay type in all cases: binding
[1] = target: T1, Brd2(1)*(Trp097His) (Homo sapiens, UniProt P25440, W97H); conditions: mutant
T1 construct: Plasmids of the eight single BET bromodomain constructs Brd2(1), Brd2(2), Brd3(1), Brd3(2); His6 (N); made in house; host or cells: E. coli BL21(DE3)
Procedure: (§1) DSF assays were performed on a LightCycler®480 from Roche or a Mx3005P Real Time PCR machine from Stratagene. […] SYPRO®Orange from Invitrogen Molecular Probes® was used as a reporter dye to monitor the denaturing process of the proteins. Samples were assayed on a 96-well plate with final protein concentrations of 2 μM for the LightCycler®480 and 6 μM for Mx3005P. Compounds were added at a final concentration of 10 μM for the LightCycler®480 and 30 μM for Mx3005P, while the tetra acetylated histone peptide was added to a final concentration of 100 μM and 300 μM respectively. […] The temperature was raised with a step of 0.6° C. per minute from 37° C. to 95° C. with the LightCycler®480 collecting 39 measurements per ° C., and 1° C. per minute from 25° C. to 95° C. with Mx3005P, collecting fluorescence readings at the end of each interval. Each sample was run in triplicates.
(§2) Collected data was analysed by IGOR Pro 6, a scientific software tool from Wave Metrics, Inc. Analysis was done following the recommendations of Niesen et al.. Fluorescence intensity was plotted as a function of temperature, generating a sigmoidal curve described by a two-state transition from folded to unfolded protein. Curves were fitted by the following sigmoidal equation: […]
(§3) A1 and A2 are the values of minimum and maximum intensities, respectively, x0 is the inflection point and dx is the rate. Fitted curves were differentiated in IGOR Pro 6 and the maximum of the first derivative was identified using the same program. These values correspond to the inflection points of the transition curves and thus to the melting temperatures of the proteins (Tm).

[2] = target: T2, Brd2(2)*(Trp370Phe) (Homo sapiens, UniProt P25440, W370F); conditions: mutant
T2 construct: Plasmids of the eight single BET bromodomain constructs Brd2(1), Brd2(2), Brd3(1), Brd3(2); His6 (N); made in house; host or cells: E. coli BL21(DE3)
T2 sequence (P25440 344-453 W370F limits assumed): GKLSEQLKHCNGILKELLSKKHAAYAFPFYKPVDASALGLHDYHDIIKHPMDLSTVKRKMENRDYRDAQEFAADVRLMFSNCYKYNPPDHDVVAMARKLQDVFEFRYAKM
Procedure: as §1, §2, §3

[3] = target: T3, Brd2(2) (Homo sapiens, UniProt P25440); conditions: wild type
T3 construct: Plasmids of the eight single BET bromodomain constructs Brd2(1), Brd2(2), Brd3(1), Brd3(2); His6 (N); made in house; host or cells: E. coli BL21(DE3)
T3 sequence (P25440 344-453 limits assumed): as the sequence (P25440 344-453 W370F limits assumed) above, with F27W counted along it
Procedure: as §1, §2, §3

[4] = target: T4, Brd2(1) (Homo sapiens, UniProt P25440); conditions: wild type
T4 construct: Plasmids of the eight single BET bromodomain constructs Brd2(1), Brd2(2), Brd3(1), Brd3(2); His6 (N); made in house; host or cells: E. coli BL21(DE3)
T4 sequence (P25440 74-180 limits assumed): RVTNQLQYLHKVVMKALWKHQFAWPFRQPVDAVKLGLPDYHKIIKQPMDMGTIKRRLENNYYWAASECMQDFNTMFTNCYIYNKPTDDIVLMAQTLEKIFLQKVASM
Procedure: as §1, §2, §3

[5] = target: T5, Brd2(1)*(Trp097Phe) (Homo sapiens, UniProt P25440, W97F); conditions: mutant
T5 construct: Plasmids of the eight single BET bromodomain constructs Brd2(1), Brd2(2), Brd3(1), Brd3(2); His6 (N); made in house; host or cells: E. coli BL21(DE3)
T5 sequence (P25440 74-180 W97F limits assumed): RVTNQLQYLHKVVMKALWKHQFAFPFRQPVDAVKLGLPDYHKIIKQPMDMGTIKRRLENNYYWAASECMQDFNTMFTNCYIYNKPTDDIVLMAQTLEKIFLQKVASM
Procedure: as §1, §2, §3

[6] = target: T6, Brd2(2)*(Trp370His) (Homo sapiens, UniProt P25440, W370H); conditions: mutant
T6 construct: Plasmids of the eight single BET bromodomain constructs Brd2(1), Brd2(2), Brd3(1), Brd3(2); His6 (N); made in house; host or cells: E. coli BL21(DE3)
T6 sequence (P25440 344-453 W370H limits assumed): as the sequence (P25440 344-453 W370F limits assumed) above, with F27H counted along it
Procedure: as §1, §2, §3

[7] = target: Brd2(1)*(Met165Ala) (Homo sapiens, UniProt P25440, M165A); parameters: Plasmids of the eight single BET bromodomain constructs Brd2(1), Brd2(2), Brd3(1), Brd3(2); His6 (N); made in house; host or cells: E. coli BL21(DE3); conditions: mutant
Sequence of Brd2(1)*(Met165Ala) (P25440 74-180 M165A limits assumed): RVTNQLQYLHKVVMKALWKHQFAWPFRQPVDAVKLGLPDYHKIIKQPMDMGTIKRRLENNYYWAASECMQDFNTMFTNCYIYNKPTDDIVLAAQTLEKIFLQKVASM
Procedure: (§4) DSF assays were performed on a LightCycler®480 from Roche or a Mx3005P Real Time PCR machine from Stratagene. Prior to DSF assays, frozen proteins were buffer exchanged using Vivaspin®6 concentrators with a 10 kDa cutoff on a Centrifuge 5430 from Eppendorf at a speed of 6000×g to remove glycerol and to buffer the proteins in 20 mM HEPES pH 7.5 at 25° C. and 100 mM NaCl. SYPRO®Orange from Invitrogen Molecular Probes® was used as a reporter dye to monitor the denaturing process of the proteins. Samples were assayed on a 96-well plate with final protein concentrations of 2 μM for the LightCycler®480 and 6 μM for Mx3005P. Compounds were added at a final concentration of 10 μM for the LightCycler®480 and 30 μM for Mx3005P, while the tetra acetylated histone peptide was added to a final concentration of 100 μM and 300 μM respectively. […] The temperature was raised with a step of 0.6° C. per minute from 37° C. to 95° C. with the LightCycler®480 collecting 39 measurements per ° C., and 1° C. per minute from 25° C. to 95° C. with Mx3005P, collecting fluorescence readings at the end of each interval. Each sample was run in triplicates.
as §2, §3

[8] = target: T7, Brd2(1)*(Met165-Leu) (Homo sapiens, UniProt P25440, M165L); conditions: mutant
T7 construct: Plasmids of the eight single BET bromodomain constructs Brd2(1), Brd2(2), Brd3(1), Brd3(2); His6 (N); made in house; host or cells: E. coli BL21(DE3)
T7 sequence (P25440 74-180 M165L limits assumed): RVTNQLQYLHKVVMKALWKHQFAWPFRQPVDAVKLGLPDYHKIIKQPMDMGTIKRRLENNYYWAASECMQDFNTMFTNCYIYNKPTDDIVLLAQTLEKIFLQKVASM
Procedure: as §4, §2, §3

[9] = target: T8, Brd2(2)*(Met438-Ala) (Homo sapiens, UniProt P25440, M438A); conditions: mutant
T8 construct: Plasmids of the eight single BET bromodomain constructs Brd2(1), Brd2(2), Brd3(1), Brd3(2); His6 (N); made in house; host or cells: E. coli BL21(DE3)
T8 sequence (P25440 344-453 M438A limits assumed): as the sequence (P25440 344-453 W370F limits assumed) above, with F27W, M95A counted along it
Procedure: as §4, §2, §3

[10] = target: T9, Brd2(2)*(Met438-Leu) (Homo sapiens, UniProt P25440, M438L); conditions: mutant
T9 construct: Plasmids of the eight single BET bromodomain constructs Brd2(1), Brd2(2), Brd3(1), Brd3(2); His6 (N); made in house; host or cells: E. coli BL21(DE3)
T9 sequence (P25440 344-453 M438L limits assumed): as the sequence (P25440 344-453 W370F limits assumed) above, with F27W, M95L counted along it
Procedure: as §4, §2, §3

T1 sequence (P25440 74-180 W97H limits assumed): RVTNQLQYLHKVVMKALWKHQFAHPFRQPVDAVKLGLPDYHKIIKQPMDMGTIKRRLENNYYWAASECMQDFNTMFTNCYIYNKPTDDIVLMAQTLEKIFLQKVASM

Row | Structure (SMILES) | Thermal stabilisation brd2(1)W097H [1] [°C] | ΔTm Brd2(1)*(Tryp097-His) [1] [K] | Thermal stabilisation brd2(2)W370F [2] [°C] | ΔTm Brd2(2)*(Tryp370-Phe) [2] [K] | Thermal stabilisation brd2(2) [3] [°C] | ΔTm Brd2(2) [3] [K] | Thermal stabilisation brd2(1) [4] [°C] | ΔTm Brd2(1) [4] [K] | Thermal stabilisation brd2(1)W097F [5] [°C] | ΔTm Brd2(1)*(Tryp097-Phe) [5] [K] | Thermal stabilisation brd2(2)W370H [6] [°C] | ΔTm Brd2(2)*(Tryp370-His) [6] [K] | ΔTm Brd2(1)*(Met165-Ala) [7] [K] | ΔTm Brd2(1)*(Met165-Leu) [8] [K] | ΔTm Brd2(2)*(Met165-Ala) [9] [K] | ΔTm Brd2(2)*(Met165-Leu) [10] [K]
1 | COC(=O)CC1N=C(c2ccc(Cl)cc2C)c2cc(OC)ccc2-n2c(C)nnc21 (racemic) [Compound 8, (+−)-methyl 2-(6-(4-chloro-2-methylphenyl)-8-methoxy-1-methyl-4H-benzo[f][1,2,4]triazolo[4,3-a][1,4]diazepin-4-yl)acetate] | 0.9 ± 0.3 | 0.9 ± 0.3 | 2.8 ± 0.1 | 2.8 ± 0.1 | 6.6 ± 0.2 | 6.6 ± 0.2 | 6.3 ± 0.1 | 6.3 ± 0.1 | 1.4 ± 0.2 | 1.4 ± 0.2 | 1.1 ± 0.2 | 1.1 ± 0.2 |  |  |  | 
2 | COC(=O)CC1N=C(c2ccc(Cl)c(C)c2)c2cc(OC)ccc2-n2c(C)nnc21 (racemic) [Compound 9, (+−)-methyl 2-(6-(4-chloro-3-methylphenyl)-8-methoxy-1-methyl-4H-benzo[f][1,2,4]triazolo[4,3-a][1,4]diazepin-4-yl)acetate] | 0.2 ± 0.2 | 0.2 ± 0.2 | 1.5 ± 0.0 | 1.5 ± 0.0 | 3.2 ± 0.1 | 3.2 ± 0.1 | 1.5 ± 0.2 | 1.5 ± 0.2 | −0.1 ± 0.2 | −0.1 ± 0.2 | 1.0 ± 0.3 | 1.0 ± 0.3 |  |  |  | 
3 | COC(=O)CC1N=C(c2cc(C)ccc2C)c2cc(OC)ccc2-n2c(C)nnc21 (racemic) [Compound 10, (+−)-methyl 2-(6-(2,5-dimethylphenyl)-8-methoxy-1-methyl-4H-benzo[f][1,2,4]triazolo[4,3-a][1,4]diazepin-4-yl)acetate] | −0.4 ± 0.3 | −0.4 ± 0.3 | 0.6 ± 0.1 | 0.6 ± 0.1 | 3.5 ± 0.1 | 3.5 ± 0.1 | 1.8 ± 0.2 | 1.8 ± 0.2 | 0.1 ± 0.2 | 0.1 ± 0.2 | −0.1 ± 0.1 | −0.1 ± 0.1 |  |  |  | 
4 | COC(=O)CC1N=C(c2cc(Cl)ccc2Cl)c2cc(OC)ccc2-n2c(C)nnc21 (centres unmarked) [Compound 17] |  | −0.4 ± 0.2 |  | 0.3 ± 0.0 |  | 2.5 ± 0.2 |  | 1.2 ± 0.2 |  | 0.0 ± 0.2 |  | −0.4 ± 0.2 |  |  |  | 
5 | Cc1cc(C)c(S(=O)(=O)Nc2ccc3c(c2)CN(C)C(=O)N3)c(C)c1 [Compound 42, 2,4,6-trimethyl-N-(3-methyl-2-oxo-1,2,3,4-tetrahydroquinazolin-6 yl)benzenesulfonamide] |  | 0.2 ± 0.4 |  | 1.8 ± 0.2 |  | 2.7 ± 0.5 |  | 0.7 ± 0.3 |  | 0.7 ± 0.2 |  | 0.2 ± 0.2 |  |  |  | 
6 | CN1Cc2cc(NS(=O)(=O)c3c(Cl)cccc3Cl)ccc2NC1=O [Compound 43, 2,6-dichloro-N-(3-methyl-2-oxo-1,2,3,4-tetrahydroquinazolin-6-yl)benzenesulfonamide] |  | 0.2 ± 0.2 |  | 1.8 ± 0.3 |  | 0.6 ± 0.1 |  | 1.2 ± 0.2 |  | 0.2 ± 0.3 |  | 0.3 ± 0.1 |  |  |  | 
7 | CN1Cc2cc(NS(=O)(=O)c3ccccc3-c3ccccc3)ccc2NC1=O [Compound 44, N-(3-methyl-2-oxo-1,2,3,4-tetrahydroquinazolin-6-yl)-[1,1′-biphenyl]-2-sulfonamide] |  | 1.3 ± 0.2 |  | 2.2 ± 0.3 |  | 2.1 ± 0.4 |  | 2.8 ± 0.4 |  | 1.8 ± 0.3 |  | 0.5 ± 0.3 |  |  |  | 
8 | Cc1cccc(Cl)c1S(=O)(=O)Nc1ccc2c(c1)CN(C)C(=O)N2 [Compound 45, 2-chloro-6-methyl-N-(3-methyl-2-oxo-1,2,3,4-tetrahydroquinazolin-6-yl)benzenesulfonamide] |  | 0.0 ± 0.3 |  | 2.3 ± 0.1 |  | 5.3 ± 0.5 |  | 3.9 ± 0.2 |  |  |  | 0.8 ± 0.1 |  |  |  | 
9 | CN1Cc2cc(NS(=O)(=O)c3ccc(C(C)(C)C)cc3)ccc2NC1=O [Compound 46, 4-(tert-butyl)-N-(3-methyl-2-oxo-1,2,3,4-tetrahydroquinazolin-6-yl)benzenesulfonamide] |  |  |  |  |  | 0.8 ± 0.1 |  | 1.1 ± 0.2 |  |  |  |  | 5.1 ± 0.2 | 0.1 ± 0.1 | 2.5 ± 0.2 | 0.3 ± 0.2
10 | COc1ccc(S(=O)(=O)Nc2ccc3c(c2)CN(C)C(=O)N3)cc1 [Compound 47, 4-methoxy-N-(3-methyl-2-oxo-1,2,3,4-tetrahydroquinazolin-6-yl)benzenesulfonamide] |  |  |  |  |  | 3.1 ± 0.4 |  | 2.4 ± 0.1 |  |  |  |  | 0.0 ± 0.3 | 0.1 ± 0.3 | 1.6 ± 0.3 | 1.3 ± 0.2
11 | CN1Cc2cc(NS(=O)(=O)c3ccc(-c4ccccc4)cc3)ccc2NC1=O [Compound 48, N-(3-methyl-2-oxo-1,2,3,4-tetrahydroquinazolin-6-yl)-[1,1′-biphenyl]-4-sulfonamide] |  |  |  |  |  | 0.0 ± 0.2 |  | 0.5 ± 0.2 |  |  |  |  | 1.5 ± 0.4 | 0.0 ± 0.1 | 0.0 ± 0.1 | 0.0 ± 0.1
12 | Cc1cc(C)cc(S(=O)(=O)Nc2ccc3c(c2)CN(C)C(=O)N3)c1 [Compound 49, 3,5-dimethyl-N-(3-methyl-2-oxo-1,2,3,4-tetrahydroquinazolin-6-yl)benzenesulfonamide] |  |  |  |  |  | 2.8 ± 0.2 |  | 2.6 ± 0.5 |  |  |  |  | 1.1 ± 0.5 | 4.1 ± 0.6 | 2.5 ± 0.2 | 4.9 ± 0.3
13 | COc1cc(C)ccc1S(=O)(=O)Nc1ccc2c(c1)CN(C)C(=O)N2 [Compound 52, 2-methoxy-4-methyl-N-(3-methyl-2-oxo-1,2,3,4-tetrahydroquinazolin-6-yl)benzenesulfonamide] |  |  |  |  |  | 2.8 ± 0.2 |  | 4.7 ± 0.2 |  |  |  |  | 1.2 ± 0.2 | 3.1 ± 0.2 | 2.0 ± 0.2 | 2.4 ± 0.1
